US5559152A, “Pharmaceutical composition having antiacoholic activity” (priority 1994, dated 1996)
Like-named read-outs stand apart in the source and are kept apart here.

How the values were obtained:
[1] = tested on: rats subjected to gamma-irradiation; details: 16 Gy, 100 mg/kg i.p. 30 min before irradiation
Protocol: This preparation was given i.p. to a group of 10 animals 30 min. before the irradiation in the dosage of 100 mg/kg of animal weight.

stomach mucosa [2] = tested on: stomach mucosa
Protocol: The diagnoses were verified on the basis of all presently used methods for diagnosing gastroenterological diseases. […] Pentagastrin in the dosage of 6 μg/kg of body weight and histamine in the dosage of 0.1 ml of 0.1% solution were used as comparative preparations. […] Having deciphered pH-gramms, pH levels, "alkaline time" (AT), hydrogen ions secretion rate (HISR), kinetic function of acid formation (KFA) were determined.
For this purpose the characteristics of stomach acid-forming function were studied in these volunteers after administering said preparations in different sequences.

patients = details: background; cited from earlier work
[3] = tested on: stomach secretion in patients suffering chronic gastritis; experiment: comparative study of pentagastrin and present composition in patients suffering chronic gastritis; type: in vivo, human
Protocol: With intragastric pH-metry initial levels of pH in these patients varied from 3.5 to 6.8, and after Noller test these levels increased to alkaline values (8-9) which levels remained the same during the test period (1-1.5 hours).

[4] = tested on: stomach secretion in patients suffering chronic gastritis with pentagastrinrefractive achlorhydria; experiment: stomach secretion in patients with pentagastrinrefractive achlorhydria; type: in vivo, human; details: stimulated secretion; M ± m
Protocol: Additionally intrastomach pH-metry was carried out (on an empty stomach and after taking the present composition or comparative preparations) using acidograph with aspiratory pH probe. Before introducing the present composition and comparative preparations and after that pH levels were registered and "alkaline time" was determined using Noller test. Having deciphered pH-gramms, pH levels, "alkaline time" (AT), hydrogen ions secretion rate (HISR), kinetic function of acid formation (KFA) were determined.
The effect of the present composition on stomach secretion in patients of this group has been studied.

[5] = tested on: stomach secretion in patients suffering chronic gastritis accompanied by stomach and duodenum ulcers; experiment: stomach secretion in patients with chronic gastritis accompanied by stomach and duodenum ulcers, pentagastrin after present composition; type: in vivo, human
Protocol: The diagnoses were verified on the basis of all presently used methods for diagnosing gastroenterological diseases. […] Additionally intrastomach pH-metry was carried out (on an empty stomach and after taking the present composition or comparative preparations) using acidograph with aspiratory pH probe. Before introducing the present composition and comparative preparations and after that pH levels were registered and "alkaline time" was determined using Noller test. Having deciphered pH-gramms, pH levels, "alkaline time" (AT), hydrogen ions secretion rate (HISR), kinetic function of acid formation (KFA) were determined.

[6] = tested on: stomach and liver tissues; details: in 100 mg of tissue; 3.5 mg/kg; M ± m
Protocol: (§1) Stomachs were washed with water through cardiac opening and the washing from the antral opening were collected. Stomach contents (5 ml of washings) were used to determine pH, pepsin and total protein content. Stomach was refilled with water, frozen in cryostate and serial section having the thickness of 6-8 microns were made beginning from low curvature and parallel to stomach longer axis. In the sections of stomach bottom and body having a total weight of 50-90 mg, protein and nucleic acids content was determined.

stomach mucosa [7] = details: mice, 3.5 mg/kg intrastomach, 35-45 min; M ± m
Protocol: as §1

[8] = tested on: rats (acute alcohol intoxication)
succinate dehydrogenase = details: mice; 4 mg/kg intrastomach, 40 min; M ± m
stomach mucosa [9] = details: 3.6 mg/kg, dogs
[10] = tested on: rats subjected to gamma-irradiation; details: rodents; cited from earlier work
[11] = histamine stimulated secretion, an hour after present composition
[12] = secretion in 1 h after histamine injection
[13] = secretion in interval between stimulators (after histamine)
[14] = stimulated secretion, pentagastrin a day after present composition, M ± m

N[C@@H](CCC(=O)N[C@@H](CS)C(=O)NCC(=O)O)C(=O)O [glutathione]
mortality [1]: 100% | life-time of rats ([1]; control 6.9 days): 10.2 days

NCCc1c[nH]cn1 [histamine]
effects on stomach acid-forming function (duration and intensity), present composition versus histamine (stomach mucosa [2]; Tables 23 and 24): identical effects on stomach acid-forming function | Free hydrochloric acid (stomach mucosa [2]; histamine secretion, M ± m): 6.5 ± 0.27 meq./liter | Total hydrochloric acid (stomach mucosa [2]; histamine secretion, M ± m): 8.00 ± 0.29 meq./liter | Free hydrochloric acid (stomach mucosa [2]; [11]): 3.90 ± 0.11 meq/liter | Total hydrochloric acid (stomach mucosa [2]; [11]): 4.70 ± 0.12 meq/liter | Free hydrochloric acid (stomach mucosa [2]; [12]): 6.92 ± 0.73 meq/liter | Total hydrochloric acid (stomach mucosa [2]; [12]): 4.6 ± 0.5 meq/liter | Free hydrochloric acid (stomach mucosa [2]; [13]): 15.3 ± 1.4 meq./liter | Total hydrochloric acid (stomach mucosa [2]; [13]): 15.8 ± 1.6 meq./liter | complications / side effects (patients): nettle-rash,larynx edema, anaphylactic shock

CSCC[C@H](NC(=O)[C@H](Cc1c[nH]c2ccccc12)NC(=O)CCNC(=O)OC(C)(C)C)C(=O)N[C@@H](CC(=O)O)C(=O)N[C@@H](Cc1ccccc1)C(N)=O [pentagastrin]
acidity, pepsin content, hydrochloric acid debit and pepsin debit ([3]; 12 refractory patients): remained at zero levels | intragastric pH after stimulation ([3]; 12 refractory patients, from 6.51±1.06, p<0.25): 4.69±0.92 | AT reduction in Noller test ([3]; 12 refractory patients, p<0.5): did not cause AT reduction | patients refractory ([3]; chronic gastritis, pentagastrin 6 μg/kg): 12 of 50 | effect on stomach secretion, comparison of the both preparations ([3]; patients suffering chronic gastritis, p<0.5): nearly the same effect on stomach secretion | Acid secretion [4]: 15.25 ± 0.86% | Acidity [4]: 0 ± 0 mmol per liter | Hydrochloric acid debit [4]: 0 ± 0 mmol per hour | Pepsin content [4]: 0 ± 0 mg per ml | Pepsin debit [4]: 0 ± 0 mg per hour | Stomach contents volume [4]: 0.067 ± 0.15 liter per hour | effect on stomach secretion, comparison of the both preparations ([5]; chronic gastritis accompanying stomach and duodenum ulcers, p<0.5): nearly the same effect on stomach secretion | effects when present composition administered in a week after pentagastrin ([5]; p<0.5): nearly identical | Pepsin debit ([5]; stimulated secretion, pentagastrin a day after present composition, M ±): 5.0 ± 1.05 mg/h | Hydrochloric acid debit [5, 14]: 17 ± 1.44 mmol/h | Secretion volume [5, 14]: 178 ± 12.7 mL | pH [5, 14]: 1.4 ± 0.14

O=C(O)CCC(=O)O [succinic acid]
Liver DNA content [6]: 15.6 ± 2.7 µg | Liver RNA content [6]: 74.5 ± 4.4 µg | Liver protein content [6]: 14.4 ± 1.2 mg | Stomach DNA content [6]: 13.1 ± 1.1 µg | Stomach RNA content [6]: 70.0 ± 4.7 µg | Stomach protein content [6]: 12.1 ± 0.9 mg | Pepsin amount in stomach contents (stomach mucosa [7]): 18.7 ± 2.1 µg | Total protein amount in stomach contents (stomach mucosa [7]): 3.9 ± 0.9 mg | pH of stomach contents (stomach mucosa [7]): 5.7 ± 0.2 | Duration of on-side position, single ethanol injection ([8]; 1.85 mg/kg intrastomach 40 min before 25% ethanol 3.5 g/kg i.p., M ± m): 1.6 ± 1.1 min | Duration of on-side position, repeated ethanol injection ([8]; 1.85 mg/kg intrastomach, second 25% ethanol 3 g/kg, 60 min after leaving on-side position, M ± m): 24.9 ± 3.8 min | alcoprotective detoxifying activity compared ([8]; after a single ethanol injection, versus claimed composition): higher alcoprotective detoxifying activity than the claimed composition | succinate dehydrogenase activity in liver (succinate dehydrogenase): 21.8 ± 0.6 nanomoles of formazan of p-nit | succinate dehydrogenase activity in stomach (succinate dehydrogenase): 26.3 ± 3.0 nanomoles of formazan of p-nit | succinate dehydrogenase activity of lymphocytes (succinate dehydrogenase): 643. ± 5.1 granules of formazan of p-nitr | time after introduction at which effect on stomach secretion abated (stomach mucosa [9]): 20 min | stimulation of stomach glands and fermentative activity (stomach mucosa [9]; versus present composition): less expressed results | effective dosage (radioprotective) [10]: 2.7 g/kg of animal weight
